The target in one experiment is CK1δ (Homo sapiens, UniProt P48730). Nature of the experiment: CK1δ kinase assay (Caliper LabChip electrophoretic separation of fluoresceinated peptide substrate and product). The class given is biochemical. The conditions noted are these: 200 pM CK1δ, 50 μM ATP, 1.5 μM peptide, 22 hours at room temperature. The procedure, abridged:
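Incubated for twenty-two hours at ambient temperature, then quenched with EDTA and analyzed by electrophoretic separation of unphosphorylated and phosphorylated peptide.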

The target in a further experiment is CK1ε (Homo sapiens, UniProt P49674). Nature of the experiment: CK1ε kinase assay (Caliper LabChip electrophoretic separation of fluoresceinated peptide substrate and product). The class given is biochemical. The conditions noted are these: 200 pM CK1ε, 50 μM ATP, 1.5 μM peptide, 22 hours at room temperature. The protocol:
CK1ε and CK1δ Kinase Assays
The kinase assay was performed in V-bottom 384-well plates. […] The reaction was incubated at room temperature for 22 hours and terminated by adding 45 μl of 35 mM EDTA to each sample. The reaction mixture was analyzed on the Caliper LABCHIP®3000 (Caliper, Hopkinton, Mass.) by electrophoretic separation of the unphosphorylated substrate and phosphorylated product. […] Compounds were dissolved at 10 mM in dimethylsulfoxide (DMSO) and evaluated at eleven concentrations. IC50 values were derived by non-linear regression analysis.

Where two headings read alike, the source gives them in different places.

Sequence of CK1ε (P49674 whole entry): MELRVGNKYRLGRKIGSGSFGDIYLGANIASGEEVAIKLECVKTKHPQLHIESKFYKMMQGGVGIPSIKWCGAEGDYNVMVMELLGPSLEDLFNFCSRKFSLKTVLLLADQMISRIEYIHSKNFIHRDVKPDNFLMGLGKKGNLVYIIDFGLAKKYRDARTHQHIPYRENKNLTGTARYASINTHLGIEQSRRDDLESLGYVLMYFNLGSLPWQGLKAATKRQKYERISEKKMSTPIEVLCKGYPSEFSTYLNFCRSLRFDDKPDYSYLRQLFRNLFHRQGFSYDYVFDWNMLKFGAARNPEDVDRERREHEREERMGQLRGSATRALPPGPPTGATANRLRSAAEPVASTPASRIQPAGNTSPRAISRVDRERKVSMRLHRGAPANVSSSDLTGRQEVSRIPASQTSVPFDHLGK
Sequence of CK1δ (P48730 whole entry): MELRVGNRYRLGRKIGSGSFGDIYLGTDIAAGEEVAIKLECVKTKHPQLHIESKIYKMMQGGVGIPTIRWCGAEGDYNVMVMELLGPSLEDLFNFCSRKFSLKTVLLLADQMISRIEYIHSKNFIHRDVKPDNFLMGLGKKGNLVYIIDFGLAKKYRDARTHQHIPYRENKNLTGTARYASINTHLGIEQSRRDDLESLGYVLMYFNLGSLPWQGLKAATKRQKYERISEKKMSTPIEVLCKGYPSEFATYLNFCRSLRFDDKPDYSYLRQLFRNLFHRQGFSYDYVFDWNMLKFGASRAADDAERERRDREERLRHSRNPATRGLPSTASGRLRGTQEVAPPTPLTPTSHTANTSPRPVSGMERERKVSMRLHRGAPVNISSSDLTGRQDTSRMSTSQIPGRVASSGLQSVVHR

As to `CC(C)(C)NC(=O)N1Cc2c(C(N)=O)c(-c3ccc(F)c(Cl)c3)nn2C(C(C)(C)O)C1` (stereo not drawn) [Compound A17, N^5-(tert-Butyl)-2-(3-chloro-4-fluorophenyl)-7-(2-hydroxypropan-2-yl)-6,7-dihydropyrazolo[1,5-a]pyrazine-3,5(4H)-dicarboxamide], the IC50 at CK1δ (read-out: CK1δ IC50 range) and on CK1ε (read-out: CK1ε IC50 range) was 10 to 100 nM throughout.

As for `NC(=O)c1c(-c2ccc(F)c(Cl)c2)nn2c1CN(C(=O)N[C@H]1C[C@@H](c3ccc(F)cc3)C1)CC2` [Compound 276, 2-(3-Chloro-4-fluorophenyl)-N^5-((1s,3s)-3-(4-fluorophenyl)cyclobutyl)-6,7-dihydropyrazolo[1,5-a]pyrazine-3,5(4H)-dicarboxamide], the IC50 at CK1δ (read-out: CK1δ IC50 range) and on CK1ε (read-out: CK1ε IC50 range) was 0.01 to 10 nM each time.

As to `CC(C)(C)NC(=O)N1Cc2c(C(N)=O)c(-c3cccc(F)c3)nn2C(CF)C1` (single isomer, unassigned) [Compound A106, N^5-(tert-Butyl)-7-(fluoromethyl)-2-(3-fluorophenyl)-6,7-dihydropyrazolo[1,5-a]pyrazine-3,5(4H)-dicarboxamide], the IC50 at CK1δ (read-out: CK1δ IC50 range) and on CK1ε (read-out: CK1ε IC50 range) was 100 to 2000 nM each time.

In the case of `CC(C)(C)NC(=O)N1CCn2nc(-c3cccnc3)c(C(N)=O)c2C1` [Compound 111, N^5-(tert-Butyl)-2-(pyridin-3-yl)-6,7-dihydropyrazolo[1,5-a]pyrazine-3,5(4H)-dicarboxamide], the IC50 at CK1δ (read-out: CK1δ IC50 range) and at CK1ε (read-out: CK1ε IC50 range) was 100 to 2000 nM each time.

Take `NC(=O)c1c(-c2cccc(F)c2)nn2c1CN(C(=O)Nc1ccc(Cl)cc1Cl)CC2` [Compound 43, N^5-(2,4-Dichlorophenyl)-2-(3-fluorophenyl)-6,7-dihydropyrazolo[1,5-a]pyrazine-3,5(4H)-dicarboxamide]: the IC50 on CK1δ (read-out: CK1δ IC50 range) and at CK1ε (read-out: CK1ε IC50 range) was 10 to 100 nM in each case.

Take `NC(=O)c1c(-c2cccc(F)c2)nn2c1CN(C(=O)NC13CC(C1)C3)CC2` [Compound 24, N^5-(Bicyclo[1.1.1]pentan-1-yl)-2-(3-fluorophenyl)-6,7-dihydropyrazolo[1,5-a]pyrazine-3,5(4H)-dicarboxamide]: the IC50 on CK1δ (read-out: CK1δ IC50 range) and on CK1ε (read-out: CK1ε IC50 range) was 10 to 100 nM throughout.

Turning to `CC(C)(NC(=O)N1CCn2nc(-c3ccc(F)c(Cl)c3)c(C(N)=O)c2C1)C(F)F` [Compound 185, 2-(3-Chloro-4-fluorophenyl)-N^5-(1,1-difluoro-2-methylpropan-2-yl)-6,7-dihydropyrazolo[1,5-a]pyrazine-3,5(4H)-dicarboxamide], the IC50 on CK1δ (read-out: CK1δ IC50 range) and at CK1ε (read-out: CK1ε IC50 range) was 0.01 to 10 nM throughout.

As for `NC(=O)c1c(-c2ccc(Cl)c(Cl)c2)nn2c1CN(C(=O)NC13CCC(c4ccc(F)cc4)(CC1)CC3)CC2` [Compound A89, 2-(3,4-Dichlorophenyl)-N^5-(4-(4-fluorophenyl)bicyclo[2.2.2]octan-1-yl)-6,7-dihydropyrazolo[1,5-a]pyrazine-3,5(4H)-dicarboxamide], the IC50 on CK1δ (read-out: CK1δ IC50 range) and on CK1ε (read-out: CK1ε IC50 range) was 0.01 to 10 nM in each case.

For `NC(=O)c1c(-c2ccc(F)c(Cl)c2)nn2c1CN(C(=O)NC1CC(F)(F)C1)[C@@H]1COC[C@@H]12` [Compound 353, (5aS,8aR)-2-(3-Chloro-4-fluorophenyl)-N^5-(3,3-difluorocyclobutyl)-5a,6,8,8a-tetrahydrofuro[3,4-e]pyrazolo [1,5-c]pyrazine-3,5(4H)-dicarboxamide], the IC50 on CK1δ (read-out: CK1δ IC50 range) and on CK1ε (read-out: CK1ε IC50 range) was 0.01 to 10 nM in each case.

Turning to `NC(=O)c1c(-c2ccc(F)c(Cl)c2)nn2c1CN(C(=O)NC1CC(F)(F)C1)C[C@@H]2CO` [Compound A116, (R)-2-(3-Chloro-4-fluorophenyl)-N^5-(3,3-difluorocyclobutyl)-7-(hydroxymethyl)-6,7-dihydropyrazolo[1,5-a]pyrazine-3,5(4H)-dicarboxamide], the IC50 on CK1δ (read-out: CK1δ IC50 range) and at CK1ε (read-out: CK1ε IC50 range) was 0.01 to 10 nM each time.

`NC(=O)c1c(-c2cccc(Cl)c2)nn2c1CN(C(=O)N[C@@H]1C[C@@H]3[C@H](C1)C3(F)F)CC2` [Compound 183, 2-(3-Chlorophenyl)-N^5-((1R,3s,5S)-6,6-difluorobicyclo[3.1.0]hexan-3-yl)-6,7-dihydropyrazolo[1,5-a]pyrazine-3,5(4H)-dicarboxamide]: the IC50 on CK1δ (read-out: CK1δ IC50 range) and at CK1ε (read-out: CK1ε IC50 range) was 0.01 to 10 nM throughout.

`CC1CN(C(=O)NC2CC(F)(F)C2)Cc2c(C(N)=O)c(-c3cccc(Cl)c3)nn21` (single isomer, unassigned) [Compound A111, 2-(3-Chlorophenyl)-N^5-(3,3-difluorocyclobutyl)-7-methyl-6,7-dihydropyrazolo[1,5-a]pyrazine-3,5(4H)-dicarboxamide]: the IC50 at CK1δ (read-out: CK1δ IC50 range) and on CK1ε (read-out: CK1ε IC50 range) was 0.01 to 10 nM each time.

For the compound `CC1(NC(=O)N2CCn3nc(-c4ccc(Cl)c(Cl)c4)c(C(N)=O)c3C2)CC(F)(F)C1` [Compound 297, 2-(3,4-Dichlorophenyl)-N^5-(3,3-difluoro-1-methylcyclobutyl)-6,7-dihydropyrazolo[1,5-a] pyrazine-3,5(4H)-dicarboxamide], the IC50 is 0.5 nM at CK1δ (read-out: CK1δ), 0.01 to 10 nM at CK1δ (read-out: CK1δ IC50 range), 0.3 nM on CK1ε (read-out: CK1ε) and 0.01 to 10 nM on CK1ε (read-out: CK1ε IC50 range).

With `NC(=O)c1c(-c2ccc(Cl)c(Cl)c2)nn2c1CN(C(=O)N[C@H]1C[C@H](F)C1)CC2` [Compound 202, 2-(3,4-Dichlorophenyl)-N^5-((1r,3r)-3-fluorocyclobutyl)-6,7-dihydropyrazolo[1,5-a] pyrazine-3,5(4H)-dicarboxamide], the IC50 on CK1δ (read-out: CK1δ IC50 range) and at CK1ε (read-out: CK1ε IC50 range) was 0.01 to 10 nM in each case.

Regarding `CC1(NC(=O)N2Cc3c(C(N)=O)c(-c4ccc(F)c(Cl)c4)nn3CC2C2CC2)CC(F)(F)C1` (single isomer, unassigned) [Compound 348, 2-(3-Chloro-4-fluorophenyl)-6-cyclopropyl-N^5-(3,3-difluoro-1-methylcyclobutyl)-6,7-dihydropyrazolo[1,5-a]pyrazine-3,5(4H)-dicarboxamide], the IC50 on CK1δ (read-out: CK1δ IC50 range) is 100 to 2000 nM; on CK1ε (read-out: CK1ε IC50 range) it was 10 to 100 nM.

As to `NC(=O)c1c(-c2ccc(F)c(Cl)c2)nn2c1CN(C(=O)NC(CF)(CF)CF)CC2` [Compound A49, 2-(3-Chloro-4-fluorophenyl)-N^5-(1,3-difluoro-2-(fluoromethyl)propan-2-yl)-6,7-dihydropyrazolo[1,5-a] pyrazine-3,5(4H)-dicarboxamide], the IC50 at CK1δ (read-out: CK1δ IC50 range) and at CK1ε (read-out: CK1ε IC50 range) was 0.01 to 10 nM each time.

For `CNC(=O)C(C)(C)NC(=O)N1CCn2nc(-c3ccc(F)c(Cl)c3)c(C(N)=O)c2C1` [Compound 214, 2-(3-Chloro-4-fluorophenyl)-N^5-(2-methyl-1-(methylamino)-1-oxopropan-2-yl)-6,7-dihydropyrazolo[1,5-a] pyrazine-3,5(4H)-dicarboxamide], the IC50 on CK1δ (read-out: CK1δ IC50 range) and on CK1ε (read-out: CK1ε IC50 range) was 10 to 100 nM each time.

Take `NC(=O)c1c(-c2cccc(F)c2)nn2c1CN(C(=O)Nc1c(F)cc(F)cc1F)CC2` [Compound 40, 2-(3-Fluorophenyl)-N^5-(2,4,6-trifluorophenyl)-6,7-dihydropyrazolo[1,5-a]pyrazine-3,5(4H)dicarboxamide]: the IC50 lay in the range of 10 to 100 nM on CK1δ (read-out: CK1δ IC50 range) and 100 to 2000 nM at CK1ε (read-out: CK1ε IC50 range).

In the case of `NC(=O)c1c(-c2ccc(Cl)c(Cl)c2)nn2c1CN(C(=O)NC1CC(F)(F)C1)C[C@@H]2CF` [Compound A30, (R)-2-(3,4-dichlorophenyl)-N^5-(3,3-difluorocyclobutyl)-7-(fluoromethyl)-6,7-dihydropyrazolo[1,5-a] pyrazine-3,5(4H)-dicarboxamide], the IC50 is 0.3 nM on CK1δ (read-out: CK1δ), 0.01 to 10 nM at CK1δ (read-out: CK1δ IC50 range), 0.1 nM on CK1ε (read-out: CK1ε) and 0.01 to 10 nM on CK1ε (read-out: CK1ε IC50 range).

Consider `CC(C)(C)NC(=O)N1CCn2nc(-c3cccc(Cl)c3)c(C(N)=O)c2C1` [Compound 108, N^5-(tert-Butyl)-2-(3-chlorophenyl)-6,7-dihydropyrazolo[1,5-a] pyrazine-3,5(4H)-dicarboxamide], for which the IC50 is 0.9 nM on CK1δ (read-out: CK1δ), 0.01 to 10 nM on CK1δ (read-out: CK1δ IC50 range), 2.4 nM at CK1ε (read-out: CK1ε) and 0.01 to 10 nM on CK1ε (read-out: CK1ε IC50 range).

As for `CC(C)(C)NC(=O)N1CCn2nc(-c3ccc(F)nc3F)c(C(N)=O)c2C1` [Compound 125, N^5-(tert-Butyl)-2-(2,6-difluoropyridin-3-yl)-6,7-dihydropyrazolo[1,5-a] pyrazine-3,5(4H)-dicarboxamide], the IC50 on CK1δ (read-out: CK1δ IC50 range) and at CK1ε (read-out: CK1ε IC50 range) was 100 to 2000 nM each time.

As to `CS[C@H]1C[C@@H](NC(=O)N2CCn3nc(-c4cccc(Cl)c4)c(C(N)=O)c3C2)C1` [Compound 270, 2-(3-Chlorophenyl)-N^5-((1s,3s)-3-(methylthio)cyclobutyl)-6,7-dihydropyrazolo[1,5-a] pyrazine-3,5(4H)-dicarboxamide], the IC50 at CK1δ (read-out: CK1δ IC50 range) and at CK1ε (read-out: CK1ε IC50 range) was 0.01 to 10 nM each time.

Regarding `CC(C)(C)NC(=O)N1Cc2c(C(N)=O)c(-c3ccc(F)c(Cl)c3)nn2C(C(=O)NC2CC2)C1` (stereo not drawn) [Compound A24, N^5-(tert-Butyl)-2-(3-chloro-4-fluorophenyl)-N^7-cyclopropyl-6,7-dihydropyrazolo[1,5-a]pyrazine-3,5,7(4H)-tricarboxamide], the IC50 on CK1δ (read-out: CK1δ IC50 range) lay within 100 to 2000 nM; on CK1ε (read-out: CK1ε IC50 range) it was 10 to 100 nM.

With `NC(=O)c1c(-c2cc(F)cc(Cl)c2)nn2c1CN(C(=O)NC1CC(F)(F)C1)CC2` [Compound 295, 2-(3-Chloro-5-fluorophenyl)-N^5-(3,3-difluorocyclobutyl)-6,7-dihydropyrazolo[1,5-a] pyrazine-3,5(4H)-dicarboxamide], the IC50 at CK1δ (read-out: CK1δ IC50 range) and at CK1ε (read-out: CK1ε IC50 range) was 0.01 to 10 nM each time.

(Values after patent publication US9273058B2 (BRISTOL-MYERS SQUIBB COMPANY, priority 2013, dated 2016).)
